Test results: ChEMBL document CHEMBL3885881, “DrugMatrix”

Species on record: Rattus norvegicus
Assay: DrugMatrix - Regimen: Daily Repeat
Type: toxicity, organism-based, Sprague-Dawley
Parameters: regimen Daily Repeat, gender Male, age 6-8 weeks
Conditions: in vivo, po, route oral GAVAGE, vehicle 100 % WATER; for ABSOLUTE BASOPHIL / ABSOLUTE EOSINOPHIL / ABSOLUTE LYMPHOCYTE / ABSOLUTE MONOCYTE / ABSOLUTE SEGMENTED NEUTROPHIL / BASOPHIL / EOSINOPHIL / ERYTHROCYTE COUNT / HEMATOCRIT / HEMOGLOBIN / LEUKOCYTE COUNT / LYMPHOCYTE / MEAN CORPUSCULAR HEMOGLOBIN / MEAN CORPUSCULAR HEMOGLOBIN CONCENTRATION / MEAN CORPUSCULAR VOLUME / MONOCYTE / NEUTROPHIL / NUCLEATED RED BLOOD CELLS / PLATELET COUNT: tissue Blood; for ALANINE AMINOTRANSFERASE / ALBUMIN / ALKALINE PHOSPHATASE / ASPARTATE AMINOTRANSFERASE / BLOOD UREA NITROGEN / CARBON DIOXIDE / CHLORIDE / CHOLESTEROL / CREATINE PHOSPHOKINASE / CREATININE / GLUCOSE / LACTATE DEHYDROGENASE / LIPASE / PHOSPHORUS / POTASSIUM / SODIUM / TOTAL BILIRUBIN / TOTAL PROTEIN / URIC ACID: tissue Plasma
[1] = 0 mg/kg, 72 h, dose level Control, time 3 day
[2] = 0 mg/kg, 120 h, dose level Control, time 5 day
[3] = 10 mg/kg, 72 h, dose level Low, time 3 day

CCN(CC)CC#CCOC(=O)C(O)(c1ccccc1)C1CCCCC1 (centres undefined) [OXYBUTYNIN]
ABSOLUTE BASOPHIL [1]: 0 CELLS/uL | ABSOLUTE EOSINOPHIL [1]: 24 CELLS/uL | ABSOLUTE LYMPHOCYTE [1]: 13105 CELLS/uL | ABSOLUTE MONOCYTE [1]: 76 CELLS/uL | ABSOLUTE SEGMENTED NEUTROPHIL [1]: 2145 CELLS/uL | BASOPHIL [1]: 0% | EOSINOPHIL [1]: 0.17% | ERYTHROCYTE COUNT [1]: 5.81 x10E6/uL | HEMATOCRIT [1]: 35.6% | HEMOGLOBIN [1]: 13.72 G/DL | LEUKOCYTE COUNT [1]: 15.35 x10E3/uL | LYMPHOCYTE [1]: 85.5% | MEAN CORPUSCULAR HEMOGLOBIN [1]: 23.62 pg | MEAN CORPUSCULAR HEMOGLOBIN CONCENTRATION [1]: 38.55 G/DL | MEAN CORPUSCULAR VOLUME [1]: 61.23 fL | MONOCYTE [1]: 0.5% | NEUTROPHIL [1]: 13.83% | NUCLEATED RED BLOOD CELLS [1]: 0 /100WBC | PLATELET COUNT [1]: 1189.83 x10E3/uL | ALANINE AMINOTRANSFERASE [1]: 48.67 u/L | ALBUMIN [1]: 4.27 G/DL | ALKALINE PHOSPHATASE [1]: 335 u/L | ASPARTATE AMINOTRANSFERASE [1]: 86.5 u/L | BLOOD UREA NITROGEN [1]: 14.33 mg/dL | CARBON DIOXIDE [1]: 29.17 mmol/L | CHLORIDE [1]: 99.83 MEQ/L | CHOLESTEROL [1]: 71.83 mg/dL | CREATINE PHOSPHOKINASE [1]: 506.83 u/L | CREATININE [1]: 0.18 mg/dL | GLUCOSE [1]: 162.17 mg/dL | LACTATE DEHYDROGENASE [1]: 264.5 u/L | LIPASE [1]: 9.67 u/L | PHOSPHORUS [1]: 11.92 mg/dL | POTASSIUM [1]: 6.55 MEQ/L | SODIUM [1]: 141.53 MEQ/L | TOTAL BILIRUBIN [1]: 0.18 mg/dL | TOTAL PROTEIN [1]: 5.87 G/DL | URIC ACID [1]: 1.67 mg/dL | ABSOLUTE BASOPHIL [2]: 0 CELLS/uL | ABSOLUTE EOSINOPHIL [2]: 25.33 CELLS/uL | ABSOLUTE LYMPHOCYTE [2]: 15680 CELLS/uL | ABSOLUTE MONOCYTE [2]: 92.33 CELLS/uL | ABSOLUTE SEGMENTED NEUTROPHIL [2]: 2102.33 CELLS/uL | BASOPHIL [2]: 0% | EOSINOPHIL [2]: 0.17% | ERYTHROCYTE COUNT [2]: 6 x10E6/uL | HEMATOCRIT [2]: 35.55% | HEMOGLOBIN [2]: 14.12 G/DL | LEUKOCYTE COUNT [2]: 17.9 x10E3/uL | LYMPHOCYTE [2]: 87.33% | MEAN CORPUSCULAR HEMOGLOBIN [2]: 23.65 pg | MEAN CORPUSCULAR HEMOGLOBIN CONCENTRATION [2]: 39.77 G/DL | MEAN CORPUSCULAR VOLUME [2]: 59.52 fL | MONOCYTE [2]: 0.5% | NEUTROPHIL [2]: 12% | NUCLEATED RED BLOOD CELLS [2]: 0.17 /100WBC | PLATELET COUNT [2]: 1325.67 x10E3/uL | ALANINE AMINOTRANSFERASE [2]: 56.17 u/L | ALBUMIN [2]: 4.23 G/DL | ALKALINE PHOSPHATASE [2]: 371.5 u/L | ASPARTATE AMINOTRANSFERASE [2]: 91 u/L | BLOOD UREA NITROGEN [2]: 15.33 mg/dL | CARBON DIOXIDE [2]: 27.67 mmol/L | CHLORIDE [2]: 99.5 MEQ/L | CHOLESTEROL [2]: 66.5 mg/dL | CREATINE PHOSPHOKINASE [2]: 518.5 u/L | CREATININE [2]: 0.18 mg/dL | GLUCOSE [2]: 143.33 mg/dL | LACTATE DEHYDROGENASE [2]: 238.83 u/L | LIPASE [2]: 9.33 u/L | PHOSPHORUS [2]: 10.68 mg/dL | POTASSIUM [2]: 6.5 MEQ/L | SODIUM [2]: 141.88 MEQ/L | TOTAL BILIRUBIN [2]: 0.18 mg/dL | TOTAL PROTEIN [2]: 6 G/DL | URIC ACID [2]: 1.63 mg/dL | ABSOLUTE BASOPHIL [3]: 0 CELLS/uL | ABSOLUTE EOSINOPHIL [3]: 0 CELLS/uL | ABSOLUTE LYMPHOCYTE [3]: 11373.67 CELLS/uL | ABSOLUTE MONOCYTE [3]: 168.67 CELLS/uL | ABSOLUTE SEGMENTED NEUTROPHIL [3]: 2324.33 CELLS/uL | BASOPHIL [3]: 0% | EOSINOPHIL [3]: 0% | ERYTHROCYTE COUNT [3]: 5.85 x10E6/uL | HEMATOCRIT [3]: 35.5% | HEMOGLOBIN [3]: 13.87 G/DL | LEUKOCYTE COUNT [3]: 13.87 x10E3/uL | LYMPHOCYTE [3]: 82.33% | MEAN CORPUSCULAR HEMOGLOBIN [3]: 23.77 pg | MEAN CORPUSCULAR HEMOGLOBIN CONCENTRATION [3]: 39.1 G/DL | MEAN CORPUSCULAR VOLUME [3]: 60.83 fL | MONOCYTE [3]: 1.33% | NEUTROPHIL [3]: 16.33% | NUCLEATED RED BLOOD CELLS [3]: 0 /100WBC | PLATELET COUNT [3]: 1157.33 x10E3/uL | ALANINE AMINOTRANSFERASE [3]: 50 u/L | ALBUMIN [3]: 4.03 G/DL | ALKALINE PHOSPHATASE [3]: 314.33 u/L | ASPARTATE AMINOTRANSFERASE [3]: 86 u/L | BLOOD UREA NITROGEN [3]: 13.67 mg/dL | CARBON DIOXIDE [3]: 28.33 mmol/L | CHLORIDE [3]: 99.33 MEQ/L | CHOLESTEROL [3]: 57.67 mg/dL | CREATINE PHOSPHOKINASE [3]: 426.33 u/L | CREATININE [3]: 0.12 mg/dL | GLUCOSE [3]: 150.67 mg/dL | LACTATE DEHYDROGENASE [3]: 120 u/L | LIPASE [3]: 9 u/L | PHOSPHORUS [3]: 12.43 mg/dL | POTASSIUM [3]: 6.97 MEQ/L | SODIUM [3]: 141.47 MEQ/L | TOTAL BILIRUBIN [3]: 0.17 mg/dL | TOTAL PROTEIN [3]: 5.57 G/DL | URIC ACID [3]: 1.97 mg/dL
